PubChem BioAssay (NCI)
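Each compound was tested at five concentrations against cells in 96-well plates for 48 hours. TGI: concentration producing complete growth inhibition.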

Columns and labels:
Experiment in all cases: NCI-60 cell line screen, 48 h
EKVX NSCLC = test system: EKVX NSCLC
MCF7 breast = test system: MCF7 breast
786-0 renal = test system: 786-0 renal
NCI-H522 lung = test system: NCI-H522 lung
UACC-257 melanoma = test system: UACC-257 melanoma
UO-31 renal = test system: UO-31 renal
RPMI-8226 leukemia = test system: RPMI-8226 leukemia
SK-OV-3 ovarian = test system: SK-OV-3 ovarian
SNB-19 CNS = test system: SNB-19 CNS
SK-MEL-5 melanoma = test system: SK-MEL-5 melanoma
UACC-62 melanoma = test system: UACC-62 melanoma
SK-MEL-28 melanoma = test system: SK-MEL-28 melanoma
NCI-H23 lung = test system: NCI-H23 lung
LOX IMVI melanoma = test system: LOX IMVI melanoma
MALME-3M melanoma = test system: MALME-3M melanoma
A549 NSCLC = test system: A549 NSCLC
SK-MEL-2 melanoma = test system: SK-MEL-2 melanoma
OVCAR-8 ovarian = test system: OVCAR-8 ovarian

Row | Compound | TGI (EKVX NSCLC) | TGI (MCF7 breast) | TGI (786-0 renal) | TGI (NCI-H522 lung) | TGI (UACC-257 melanoma) | TGI (UO-31 renal) | TGI (RPMI-8226 leukemia) | TGI (SK-OV-3 ovarian) | TGI (SNB-19 CNS) | TGI (SK-MEL-5 melanoma) | TGI (UACC-62 melanoma) | TGI (SK-MEL-28 melanoma) | TGI (NCI-H23 lung) | TGI (LOX IMVI melanoma) | TGI (MALME-3M melanoma) | TGI (A549 NSCLC) | TGI (SK-MEL-2 melanoma) | TGI (OVCAR-8 ovarian)
1 | COc1ccc2c(c1)N=C1CSC(c3cc([N+](=O)[O-])ccc3Cl)N1C2 (stereo not given) | 47.1 µM | 42.6 µM | 89.3 µM | 57 µM | 37.9 µM | 57.9 µM | 57.6 µM | 65.1 µM | > 100 µM | > 100 µM | 42.1 µM | 83.7 µM | 62.4 µM | > 100 µM | 60.4 µM | > 100 µM | 51.1 µM | > 100 µM
2 | Oc1c(C2=N[C@H]3CCCC[C@@H]3N2)ccc2ccccc12 | > 100 µM | > 100 µM | > 100 µM | > 100 µM | > 100 µM | > 100 µM | > 100 µM | > 100 µM | > 96.4 µM | > 100 µM | > 100 µM | > 100 µM | > 100 µM | > 100 µM | > 100 µM | > 21.8 µM | > 100 µM | > 100 µM
3 | COC(=O)C1(Cc2ccccc2)Cc2ccc3c(c2C1=O)CCC3 (stereo not given) | > 75.2 µM | > 100 µM | > 100 µM | 75.5 µM | 99.1 µM | > 100 µM | > 90.3 µM | > 100 µM | > 100 µM | 49.9 µM | > 100 µM | > 100 µM | > 78.6 µM | > 64 µM | 25.4 µM | > 100 µM | 41.5 µM | > 100 µM
4 | CN(C)c1nc(-c2ccccc2)c(C(=O)c2c[nH]c3ccccc23)s1 | > 100 µM | > 100 µM | > 47.6 µM | 10.4 µM | > 100 µM | > 100 µM | 32 µM | > 100 µM | > 100 µM | > 100 µM | > 100 µM | > 100 µM | > 100 µM | > 100 µM | > 100 µM | > 100 µM | > 100 µM | > 100 µM
5 | Cc1[nH]c(=O)nc(NCCNCCO)c1C(=O)Nc1c2ccccc2nc2ccccc12 | > 100 µM | > 100 µM | > 100 µM | > 100 µM | > 100 µM | > 100 µM | > 100 µM | > 100 µM | > 100 µM | > 100 µM | > 100 µM | > 100 µM | > 100 µM | > 100 µM | > 100 µM | > 100 µM | > 100 µM | > 100 µM
